Measured values reported in article PMC12369603, “Functional characterization of antennae-enriched chemosensory protein 4 in emerald ash borer, Agrilus planipennis” (PeerJ, 2025).
“And” between values parts separate entries of the source, which are not always exact repeats. Identical values can stand only once. Like-named read-outs stand apart in the source and are kept apart here. Blank lines part the entries; values can stand above or below the compound they belong to.

Assays:
[1] = molecular target: T1, recombinant AplaCSP4 (Agrilus planipennis chemosensory protein 4) (Agrilus planipennis, UniProt A0A1W4XLL0); experiment: biochemical; assay type: binding; conditions: for Kd: read-out: K D ±SE (dissociation constant); for binding to AplaCSP4 (in words): discussion of fluorescence competitive binding results; for Competitive binding capability(%) / activity at 2 µM / activity at 4 µM / activity at 6 µM / activity at 8 µM / activity at 10 µM / activity at 12 µM: three replicate columns, 100 at 0 μM
Description: Specifically, the binding affinities of AplaCSP4 for 43 volatile organic compounds were determined using F-380 fluorescence spectrophotometer (Tianjin, China) with a 10 nm slits and a 1 cm light path. These 43 substances are common green leaf volatiles, among which 16 volatiles originate from the ash tree. […]

[2] = molecular target: T1, recombinant AplaCSP4 (Agrilus planipennis chemosensory protein 4); experiment: Binding of fluorescent probe 1-NPN to AplaCSP4 (titration); conditions: 2 µM protein in 50 mM Tris–HCl pH 7.4 titrated with 1-NPN 2-16 µM; read-out: binding affinity constant (KD) between 1-NPN and AplaCSP4
Description: Fluorescence competitive binding assays were conducted according to the method described by [Wang et al. (2021)]. Specifically, the binding affinities of AplaCSP4 for 43 volatile organic compounds were determined using F-380 fluorescence spectrophotometer (Tianjin, China) with a 10 nm slits and a 1 cm light path. These 43 substances are common green leaf volatiles, among which 16 volatiles originate from the ash tree. As the fluorescent probe, N-phenyl-1-naphthylamine (1-NPN) was excited at the wavelength of 337 nm, and emission spectra were recorded between 390 and 530 nm. […]

[3] = AplaCSP4 and 1-NPN each 2 µM, ligands with minimal binding single experiment, read-out: K D ±SE, “–” = no binding (IC50 >16 μM, KD not calculated)
[4] = ligand concentration 2 μM, 2 µM
[5] = ligand concentration 4 μM, 4 µM
[6] = ligand concentration 6 μM, 6 µM
[7] = ligand concentration 8 μM, 8 µM
[8] = ligand concentration 10 μM, 10 µM
[9] = ligand concentration 12 μM, 12 µM
[10] = pH 7.4, read-out: Competitive binding capability(%), ligand concentration 2 μM
[11] = pH 7.4, read-out: Competitive binding capability(%), ligand concentration 4 μM
[12] = pH 7.4, read-out: Competitive binding capability(%), ligand concentration 6 μM
[13] = pH 7.4, read-out: Competitive binding capability(%), ligand concentration 8 μM
[14] = pH 7.4, read-out: Competitive binding capability(%), ligand concentration 10 μM
[15] = pH 7.4, read-out: Competitive binding capability(%), ligand concentration 12 μM

T1 sequence (A0A1W4XLL0 entry or part of it): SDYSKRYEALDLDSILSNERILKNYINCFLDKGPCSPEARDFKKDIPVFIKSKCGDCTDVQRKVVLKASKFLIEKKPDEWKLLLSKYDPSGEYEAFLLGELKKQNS

Compound: CC(C)=CCCC(C)=CC=O (mixture of isomers) [Citral]
IC50 [1]: > 16 µM

Compound: CC(=O)O[C@@H]1C[C@H]2CC[C@]1(C)C2(C)C (racemic) [Isobornyl acetate]
IC50 [1]: > 16 µM

Compound: C=C(C)C1CC=C(C)CC1 (single isomer, unassigned; (+)) [(+)-Limonene]
Kd ([1]; AplaCSP4 and 1-NPN each 2 µM, 50 mM Tris–HCl pH 7.4, KD = IC50/(1+[1-NPN]/K1-NPN), mean of three experiments): 11.3 ± 0.69 µM
binding to AplaCSP4 (in words) [1]: binding capabilities
Competitive binding capability(%) ([1]; ligand concentration 2 μM): 97.2535% and 97.4709% and 95.8953%
Competitive binding capability(%) ([1]; ligand concentration 4 μM): 90.8935% and 90.3604% and 88.2267%
Competitive binding capability(%) ([1]; ligand concentration 6 μM): 83.0381% and 84.401% and 80.748%
Competitive binding capability(%) ([1]; ligand concentration 8 μM): 77.7418% and 78.3215% and 71.3561%
Competitive binding capability(%) ([1]; ligand concentration 10 μM): 70.6734% and 71.72% and 63.3296%
Competitive binding capability(%) ([1]; ligand concentration 12 μM): 65.4243% and 64.4472% and 56.5332%

Compound: CC12CCC(CC1)C(C)(C)O2 [1,8-Cineole]
IC50 [1]: > 16 µM

Compound: CCCCCCO [1-Hexanol]
IC50 [1]: > 16 µM

Compound: c1ccc(Nc2cccc3ccccc23)cc1 [1-NPN, N-phenyl-1-naphthylamine]
Kd [2]: 9.36 µM

IC50 [1, 3]: > 16 µM
Compound: CCCCCCCCO [1-Octanol]

Compound: C=CC(O)CCCCC (stereo not shown) [1-Octen-3-ol]
IC50 [1]: > 16 µM

Compound: CCCCC(C)=O [2-Hexanone]
IC50 [1]: > 16 µM

Compound: CCc1ccc(C(C)=O)cc1 [4′-Ethylacetophenone]
IC50 [1]: > 16 µM

Compound: C=C1CCC2CC1C2(C)C (stereo not drawn) [(-)-β-Pinene]
IC50 [1, 3]: > 16 µM

Compound: C=C(C)[C@@H]1CC=C(C)C(=O)C1 [(R)-(-)-Carvone]
IC50 [1]: > 16 µM

Compound: O=Cc1ccccc1 [Benzaldehyde]
IC50 [1]: > 16 µM

IC50 [1, 3]: > 16 µM
Compound: CCCCCCCCCC=O [Decanal]

Compound: CCCCCCCCCC [Decane]
Competitive binding capability(%) [1, 4]: 60.8138% and 70.0208%
Competitive binding capability(%) [1, 5]: 45.6655% and 49.8433%
Competitive binding capability(%) [1, 6]: 42.3979% and 46.6766%
Competitive binding capability(%) [1, 7]: 41.2683% and 43.4013%
Competitive binding capability(%) [1, 8]: 39.2004% and 42.0377%
Competitive binding capability(%) [1, 9]: 38.5773% and 39.0548%
activity at 2 µM [1, 10]: 57.1%
activity at 4 µM [1, 11]: 45.8%
activity at 6 µM [1, 12]: 42.4%
activity at 8 µM [1, 13]: 40.4%
activity at 10 µM [1, 14]: 39.9%
activity at 12 µM [1, 15]: 38.2%
Kd [1]: 2.87 ± 0.44 µM

Compound: CCCCCCCCCCCC [Dodecane]
binding to AplaCSP4 (in words) [1]: binding capabilities
Competitive binding capability(%) [1, 4]: 62.371% and 59.0946%
Competitive binding capability(%) [1, 5]: 40.5144% and 36.3519%
Competitive binding capability(%) [1, 6]: 30.0968% and 29.949%
Competitive binding capability(%) [1, 7]: 26.7121% and 28.4784%
Competitive binding capability(%) [1, 8]: 26.2641% and 27.4122%
Competitive binding capability(%) [1, 9]: 25.5826% and 26.3545%
activity at 2 µM [1, 10]: 63.1%
activity at 4 µM [1, 11]: 37.5%
activity at 6 µM [1, 12]: 29.7%
activity at 8 µM [1, 13]: 27.4%
activity at 10 µM [1, 14]: 26.7%
activity at 12 µM [1, 15]: 25.8%
Kd [1]: 1.93 ± 0.09 µM

Compound: C=CCc1ccc(O)c(OC)c1 [Eugenol]
IC50 [1]: > 16 µM

Compound: CCCCCC=O [Hexanal]
IC50 [1]: > 16 µM

IC50 [1, 3]: > 16 µM
Compound: CCCCCCOC(C)=O [Hexyl acetate]

Competitive binding capability(%) [1, 4]: 93.4207% and 91.053%
Competitive binding capability(%) [1, 5]: 84.76% and 83.3555%
Competitive binding capability(%) [1, 6]: 77.5021% and 75.6266%
Competitive binding capability(%) [1, 7]: 71.3681% and 69.2316%
Competitive binding capability(%) [1, 8]: 65.618% and 62.7841%
Competitive binding capability(%) [1, 9]: 61.0388% and 57.6483%
activity at 2 µM ([1]; pH 7.4, ligand concentration 2 μM, read-out: Competitive binding capability(%)): 93.1%
activity at 4 µM ([1]; pH 7.4, ligand concentration 4 μM, read-out: Competitive binding capability(%)): 85.4%
activity at 6 µM ([1]; pH 7.4, ligand concentration 6 μM, read-out: Competitive binding capability(%)): 78.8%
activity at 8 µM ([1]; pH 7.4, ligand concentration 8 μM, read-out: Competitive binding capability(%)): 72.2%
activity at 10 µM ([1]; pH 7.4, ligand concentration 10 μM, read-out: Competitive binding capability(%)): 65.8%
activity at 12 µM ([1]; pH 7.4, ligand concentration 12 μM, read-out: Competitive binding capability(%)): 61.7%
Kd [1]: 11.5 ± 0.42 µM
Compound: CCCCCCOC(=O)CCC [Hexyl butyrate]
